Patent US20210132041A1, “TARGET FOR DRUG TREATMENT OF TUMOR METASTASIS AND USE THEREOF” (PEKING UNIVERSITY, priority 2018, published 2021)

Experiments:
[1] = system: B16-F10 cells; experiment: AnnexinV/7-AAD staining, apoptosis by flow cytometry; type: cell-based, mouse; details: FIG. 2; 0.1 μM and 1 μM, 24 hours
Protocol: AnnexinV/7-AAD staining: Cells were plated on 24-well plates. 0.1 μM and 1 μM of PRAK inhibitor-23 were added for treatment after the cells adhered to the walls. After 24 hours, the cells were harvested for Annexin V/7-AAD staining, and the cell apoptosis was analyzed by flow cytometry.

[2] = system: spontaneous breast tumors; experiment: Incidence and growth of spontaneous breast tumors in MMTV-PyMT mice; type: in vivo, mouse; details: FIG. 12, 1 mg/kg every other day from 12th week, week 15
Protocol: The MMTV-PyMT mice were crossed with PRAK mice to obtain MMTV-PRAK WT and MMTV-PRAK knockout mice. From 8 to 10 weeks, the occurrence of breast tumors was observed. Another group of MMTV-PRAK WT mice were given PRAK inhibitor (1 mg/kg) every other day from the 12th week. At week 15, the mice were sacrificed, breast tumor nodules were counted and weighed, and lung tumor nodules were counted at the same time.

[3] = system: B16-F10 tumors; experiment: Growth of subcutaneously inoculated B16-F10 tumors in C57BL/6 mice; type: in vivo, mouse; details: FIG. 5, 2 mg/kg/d intraperitoneal
Protocol: 3. Effects on tumor growth in situ Experimental procedure: The C57BL/6 female mice of 6 to 8 week old (commercially available, for example, from Charles River) were selected for the experiment. The B16-F10 cells in the logarithmic growth phase were digested, and washed twice with PBS. After counting, the cells were resuspended in PBS at a density of 1.5×10^6/ml. The tumor cells (3×10^5 cells in 200 μL) were subcutaneously inoculated into the lateral ribs of mice. The drug-treated group was intraperitoneally injected with PRAK inhibitor-23 at 2 mg/kg/d.
The long diameter (L) and short diameter (S) of the tumor were measured with vernier calipers every two days, the tumor size was calculated with the formula L×S×S×0.5, and the tumor growth curve was drawn.

[4] = system: B16-F10 cells; experiment: MTS cell proliferation assay; type: cell-based, mouse; details: FIG. 1, in vitro
Protocol: MTS: Same numbers of PRAK WT and KO cells were plated on 96-well plates. Cell Titer 96 Aqueous cell proliferation detection solution was added at different time points after the cells adhered to the walls. After incubation at 37° C. for 1 to 4 hours, the absorbance was measured at 490 nm and the cell proliferation curve was drawn.

O=C1NCc2cc(-c3cnc(Nc4ccc(N5CCOCC5)cc4)c4nccn34)ccc21 [PRAK inhibitor-23, 5-(8-((4-morpholinylphenyl)amino)imidazo [1,2-a]pyrazin-5-yl) isoindol-1-one]
no significant effect: effect on the apoptosis of B16-F10 cells [1] | effect on the incidence and growth of spontaneous breast tumors [2] | effect on the growth of subcutaneously inoculated B16-F10 tumors at the injection site [3] | effect on the proliferation of B16-F10 cells [4]
